In patent EP0165970B1, “HAIR GROWTH MODIFICATION” (KASZYNSKI, Edwin G., priority 1983, dated 1985):

Experiments:
flank organ hair = test: Flank organ hair mass (hair re-growth) after topical application; assay type: in vivo; conditions: adult intact male hamsters
Excerpt: The absence of antagonism of synthemic androgen activity in the practice of our invention can be shown by the topical application of suitable compositions to one of the two flank organs of mature male hamsters. Dose-related decreases in androgen-dependent flank organ hair growth are obtained on the treated side but no statistically significant change occurs in the contralateral, vehicle-treated side. Similar studies have been conducted using female hamsters in which hair growth on the flank organs has been stimulated by the subcutaneous administration of a suitable androgen.
Summarized below are the results of several experiments comparing the efficacy of several compositions in reducing the flank organ hair mass in adult intact male hamsters. In each case, hamsters were treated for 15 days (Monday-Friday) during a 21-day interval. Flank organ hairs were depilated on the first day of treatment and redepilated on the sixth day of treatment. The mass of flank organ hair represents the re-growth during the final 14 days of the 21-day interval. The results for percent inhibition shown below are based upon comparisons between the hair mass values of hairs hervested from treated flank organs of experimental animals and those obtained from vehicle-treated control animals.

[1] = tested on: ornithine decarboxylase (ODC); test: Flank organ ornithine decarboxylase (ODC) activity, in vivo screen for topical antiandrogens; set-up: species or system hamsters; conditions: for ODC activity in flank organs: applied topically, single agents
Excerpt: A novel method for screening topical antiandrogens has been developed in which the fluctuations in flank organ activity of the enzyme ornithine decarboxylase (ODC) in response to androgens and antiandrogens is exploited to provide a rapid, in vivo screen for antiandrogens, based on a biochemical parameter specifically related to androgenic stimulation of pilosebaceous target tissues.
A further series of investigations on the androgenic regulation of ODC activity in hamster flank organs has been conducted to test topical antiandrogenic formulations consisting of combination regimens.

[2] = Experiment III, 500 micrograms per square centimeter
[3] = topical, androgen stimulated female hamsters
[4] = unilateral topical application, flank organs of intact (uncastrated) male hamsters

CC(=O)O[C@]1(C(C)=O)CC[C@H]2[C@@H]3C=C(Cl)C4=CC(=O)CC[C@]4(C)[C@H]3CC[C@@]21C [Chlormadione acetate]
% Inhibition (flank organ hair; [2]): 45%
ODC activity in flank organs [1]: inhibit ODC activity

CC(=O)[C@H]1CC[C@H]2[C@@H]3CCC4=CC(=O)CC[C@]4(C)[C@H]3CC[C@]12C [Progesterone]
% Inhibition (flank organ hair; Experiment I, 15 days treatment in 21-day interval, 1000 micrograms per square centimeter): 30%
% Inhibition (flank organ hair; Experiment III, 1000 micrograms per square centimeter): 57%
% Inhibition (flank organ hair; Experiment IV, 1000 micrograms per square centimeter): 48%
ODC activity in flank organs [1]: inhibit ODC activity
ODC activity [1, 3]: inhibited ODC activity

C[C@]12CC[C@H]3[C@@H](CCC4=CC(=O)CC[C@@]43C)[C@@H]1CC[C@@H]2C(=O)O [4-androstene-3-one-17B- Carboxylic acid]
% Inhibition (flank organ hair; Experiment II, 400 micrograms per square centimeter): 29%

CC(=O)O[C@]1(C(C)=O)CC[C@H]2[C@@H]3C=C(Cl)C4=CC(=O)[C@@H]5C[C@@H]5[C@]4(C)[C@H]3CC[C@@]21C [Cyproterone acetate]
% Inhibition (flank organ hair; Experiment I, 500 micrograms per square centimeter): 26%
% Inhibition (flank organ hair; Experiment II, 50 micrograms per square centimeter): 23%
% Inhibition (flank organ hair; Experiment II, 500 micrograms per square centimeter): 38%
ODC activity in flank organs [1]: inhibit ODC activity
ODC activity [1, 3]: inhibited ODC activity

CC(=O)S[C@@H]1CC2=CC(=O)CC[C@]2(C)[C@H]2CC[C@@]3(C)[C@@H](CC[C@@]34CCC(=O)O4)[C@H]12 [Spironolactone]
% Inhibition (flank organ hair; [2]): 41%

C=CC[C@]1(O)CC[C@H]2[C@@H]3CCC4=CC(=O)CC[C@]4(C)[C@H]3CC[C@@]21C [17-α-allyltestosterone]
% Inhibition (flank organ hair; Experiment IV, 5 micrograms per square centimeter): 0%
% Inhibition (flank organ hair; Experiment IV, 20 micrograms per square centimeter): 29%
% Inhibition (flank organ hair; Experiment IV, 50 micrograms per square centimeter): 50%
% Inhibition (flank organ hair; Experiment IV, 100 micrograms per square centimeter): 50%
ODC activity in flank organs [1]: inhibit ODC activity
ODC activity [1, 4]: selectively decreased ODC activity on treated but not untreated flank organs

CCC[C@]1(O)CC[C@H]2[C@@H]3CCC4=CC(=O)CC[C@]4(C)[C@H]3CC[C@@]21C [17-α-Propyltestosterone]
% Inhibition (flank organ hair; Experiment I, 6 micrograms per square centimeter): 26%
ODC activity in flank organs [1]: inhibit ODC activity
ODC activity [1, 4]: selectively decreased ODC activity on treated but not untreated flank organs
